Reference: patent publication US20030134901A1, “Lipoxin compounds and their use in treating cell proliferative disorders” (priority 1993, published 2003)

Tests used:
[1] = test system: human skin fibroblasts; experiment: Fibroblast proliferation, MTT assay; format: cell-based; conditions: 100 nM, n=3
Source text: Human type II epithelial A549 cells from human lung carcinoma and normal human skin fibroblast (breast) were obtained from the American Type Culture Collection (Rockville, Md.). The A549 cell line originated from a human alveolar cell carcinoma and was a useful cell line because it was easily assessable and could be maintained in culture without contaminating tissue macrophages. (Lieber, M., et al (1976) A continuous tumor-cell line from a human lung carcinoma with properties of type II alveolar epithelial cells. Int. J Cancer Fibroblasts were utilized within their limited window of viability and their passage numbers were recorded (results are reported for cells from 3-5 passages). Epithelial A549 cells were seeded into T-75 cm^2 tissue culture flasks and maintained in F-12K medium supplemented with 10% heat-inactivated FBS, penicillin (50 U/mL) and streptomycin (50 (g/mL). Human PMN from healthy donors who had not taken ASA or other medications for at least two weeks were obtained by Ficoll-Hypaque gradient centrifugation and dextran sedimentation, (Böyum A. (1968) Isolation of mononuclear cells and granulocytes from human blood. […] Viability of A549 cells and PMN was determined by their ability to exclude trypan blue and were 95±2 and 97±1%, respectively.
A microculture 3,(4,5-dimethylthiazoyl-2-yl) 2,5 (diphenyl-tetrazolium bromide) (MTT) assay, (Marshall, N. J., et al. (1995) A critical assessment of the use of microculture tetrazolium assays to measure cell growth and function. Growth Regul. 5: 69-84.), was used to examine the actions of LXs and other eicosanoids on cell proliferation. A549 cells and fibroblasts from exponential-phase maintenance cultures were counted and dispensed within replicate 96-well culture plates in 100 μl volumes of medium (˜2000 cells/well). […] Dye solution was aspirated, wells were washed once with HBSS and dye taken up by the cells was extracted in 100 μl of isopropyl alcohol:1 N HCl (96:4, v/v) and quantitated at 570 nm using a microplate reader (Molecular Devices, Menlo Park, Calif.). […]

[2] = target: T1, LXA4 specific binding sites of differentiated HL-60 cells (Homo sapiens, UniProt P25090); experiment: 3H-LXA4 specific binding to differentiated HL-60 cells; conditions: competition, competitor 300 nM where printed
T1 construct: endogenous in cells; host or cells: HL-60 cells differentiated with DMSO, retinoic acid or PMA; intact cells
T1 sequence (P25090 1-351): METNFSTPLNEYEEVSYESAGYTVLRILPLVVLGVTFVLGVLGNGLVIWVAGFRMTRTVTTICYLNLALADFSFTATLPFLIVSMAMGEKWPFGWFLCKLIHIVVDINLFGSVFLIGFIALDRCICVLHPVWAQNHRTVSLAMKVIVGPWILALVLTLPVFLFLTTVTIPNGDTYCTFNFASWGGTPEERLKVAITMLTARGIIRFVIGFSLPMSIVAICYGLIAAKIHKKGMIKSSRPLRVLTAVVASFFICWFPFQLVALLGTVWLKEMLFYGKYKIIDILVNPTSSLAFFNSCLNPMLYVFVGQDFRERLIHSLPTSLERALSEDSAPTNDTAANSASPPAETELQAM
Procedure: Preparation of [11,12-^3H]LXA4. Tritiation of 11,12-acetylenic LXA4 methyl ester was carried out under a custom tritiation service (NET-259:92-2326) by New England Nuclear (Boston, Mass.). Briefly, 11,12-acetylene methyl ester was characterized by UV absorbance and reverse-phase HPLC as in (Nicolaou, K. C. et al. (1985) J. Am. Chem. Soc. 107:7515) and exposed to tritium atmosphere in methylene chloride at room temperature. This incubation was stirred in the presence of Lindlar catalyst (1.0 mg from Fluka Chemicals) for˜1 h. The resulting mixture was stored in methanol and isolated using RP-HPLC. Tritiated products were chromatographed as methyl esters utilizing a gradient HPLC system equipped with a photodiode array rapid spectral detector (Serhan, C. N., Methods in Enzymology: Arachidonate Related Lipid Mediators, in Murphy R. C., Fitzpatrick, F. (eds.), vol. 187. Orlando, Fla., Academic, (1990), p. 167). This mixture contained both [11,12-^3H]LXA4 and [11,12-^3H]-11-trans-LXA4 methyl esters (˜1:3 ratio) as determined by coelution with synthetic standards. After RP-HPLC, fractions containing [11,12-^3H]LXA4 were collected, and extracted into ethyl acetate. The free acid was prepared by LiOH saponification (Fiore, S. et al. (1992) J. Biol. Chem. 267:16168). Material from these fractions, when injected into UV-electrochemical detection HPLC, gave greater than 90% of radioactivity associated with a tetraene-containing product that coeluted with synthetic LXA4. Materials that eluted with the retention time of authentic LXA4 in two HPLC systems were taken for binding experiments. The specific activity calculated for [11,12-^3H]LXA4 was 40.5 Ci/mmole.
Cell cultures and differentiation. HL-60 cells were seeded in RPMI medium supplemented with 100 U/ml penicillin, 100 μg/ml streptomycin, and 10% fetal calf serum (Hyclone, Logan, Utah), incubated at 37° C. with 5% CO2 atmosphere in 250 ml flasks. Individual flasks containing ˜[…] next received dimethyl sulfoxide (DMSO) (1.12% v/v, 120 h) or retinoic acid (RA) (1 μM, 120 h) or phorbol myristate acetate (PMA) (20 nM, 48 h). Before performing binding assays, cells were washed twice in phosphate buffered saline (PBS), Ca^2+- and Mg^2+-free, enumerated and suspended at 20×10^6 cells/ml in Tris buffer (10 mM), pH 7.4 (Fiore, S. et al.(1992) J. Biol. Chem. 267:16168). Nitro blue tetrazolium reduction was performed to monitor induction of polymorphonuclear phenotype as in (Imaizumi, M. and Breitman, T. R. (1986) Blood 67:1273), and cell adherence was determined for induction of macrophage-like phenotype (Collins, S. J. (1987) Blood 70:1273). Human umbilical vein endothelial cells (HUVEC) maintained in culture third passage were obtained from Dr. M. Gimbrone (Brigham and Women's Hospital Department of Pathology).
Ligand binding. ^3H-LXA4 and ^3H-LTB4 binding was performed essentially as in Fiore, S. et al.(1992) J. Biol. Chem. 267:16168. After suspending cells in Tris buffer 10 mM (pH 7.4, Ca^2+ 2.5 mM, Mg^2+ 1.2 mM), aliquots (0.5 ml) were incubated (20 min at 4° C.) with ^3H- ligands alone (0.3 nM) or in the presence of increasing concentrations of homoligands or other compounds (3-300 nM). The incubations were rapidly centrifuged (60 sec, 12,000 g) on silicon oil (d=1.028), and cell-associated radioactivity was determined by liquid scintillation counting (Wallac 1409, Pharmacia, Piscataway, N.J.). Binding experiments with HUVEC cells were performed in 12 well plates with 3.5×10^5 cells/well. After 10 min, wells were washed twice with PBS and cell-associated label was recovered by adding glacial acetic acid (0.5 ml). Results obtained from these assays were submitted for further analysis using the Ligand program (Elsevier-Biosoft, Cambridge, UK).

[3] = test system: A549 cells; experiment: A549 cell proliferation, MTT assay; format: cell-based, human
Procedure: A microculture 3,(4,5-dimethylthiazoyl-2-yl) 2,5 (diphenyl-tetrazolium bromide) (MTT) assay, (Marshall, N. J., et al. (1995) A critical assessment of the use of microculture tetrazolium assays to measure cell growth and function. Growth Regul. 5: 69-84.), was used to examine the actions of LXs and other eicosanoids on cell proliferation. A549 cells and fibroblasts from exponential-phase maintenance cultures were counted and dispensed within replicate 96-well culture plates in 100 μl volumes of medium (˜2000 cells/well). Following 24 hours at 37° C., the culture medium was removed, and fresh medium (100 μl) containing either the compounds (5-1000 nM) or vehicle (medium plus 0.15% ethanol) was added to 4 replicates for each condition studied and the culture plates were then incubated for up to 96 hours at 37° C. in a 5% CO2 atmosphere. At the end of this period, 25 μl of freshly prepared MTT in HBSS (5 mg/ml) was added to the wells and the plates were incubated for 4 hours at 37° C. Dye solution was aspirated, wells were washed once with HBSS and dye taken up by the cells was extracted in 100 μl of isopropyl alcohol:1 N HCl (96:4, v/v) and quantitated at 570 nm using a microplate reader (Molecular Devices, Menlo Park, Calif.). In some experiments, cells were grown in 12-well culture plates, treated as above and enumerated using a Neubauer hemocytometer. Viability was assessed routinely using trypan blue exclusion assay. For the A549 cells and fibroblasts, a linear relation was established for the MTT values and cell number within the range of the experiments shown (r=0.995, P<0.005). A549 cells grown for 72 hours in the presence of the compounds (5-1000 nM) or vehicle (0.15% EtOH) were lysed with 0.25 N NaOH and the cellular protein content was determined by applying the Bio-Rad (Richmond, Calif.) microassay method using bovine serum albumin as standard. The mean cellular protein content in resting A549 cells was 46.6±1.5 pg/cell.

CCCCC[C@H](O)[C@H](O)/C=C/C=C/C=C\C=C\[C@@H](O)CCCC(=O)O [LXB4, (5S, 14R, 15S)-trihydroxy-6E, 8Z, 10E, 12E-eicosatetraenoic acid]
inhibition of proliferation of fibroblasts [1]: 38.0% | displacement of 3H-LXA4 specific binding [2]: Neither LXB4, LTB4, nor trihydroxyheptanoic acid (methyl ester) (300 nM) were able to displace | inhibition of A549 cell proliferation over time ([3]; 1 μM, after 72 and 96 hours of treatment): inhibited A549 cell proliferation | % inhibition ([3]; 10^−7 M, 72 hours at 37° C., mean ± SEM, 3 to 7 experiments): 30.0 ± 8.5% | times more active than either LXA4 or dexamethasone ([3]; concentrations of 0.5 and 1 μM, 72 hours): 3 times | inhibition proliferation ([3]; equimolar levels (100 nM), Table 1): ~34%
